Source: patent publication US20080319002A1, “Xanthine Derivatives a Useful as Muscarinic Receptor Antagonists” (RANBAXY LABORATORIES LIMITED, priority 2004, published 2008)

Row | melting point [°C] | SMILES
1 | 183 to 190 | O=C(N[C@H]1[C@@H]2CNC[C@@H]21)C1c2ccccc2Oc2ccccc21 [Compound No. 6]
2 | 165 | O=C(NC[C@@H]1[C@H]2CN(CCc3ccc4c(c3)CCO4)C[C@@H]12)C1c2ccccc2Oc2ccccc21 [Compound No. 11, N-[(1α,5α,6α)-3-(2-(2,3-dihydro-benzofuran-5-yl)-ethyl)-3-aza-bicyclo[3.1.0]hex-6-ylmethyl]-9H-Xanthene-9-carboxylic acid amide]
